Results taken from PMC5300040 (Environmental Science & Technology, 2016).
Where two headings read alike, the source gives them in different places.

How the values were obtained:
dog CYP2B11 = details: cited from earlier work
recombinant rat CYP2B1 = details: cited from earlier work
[1] = test system: liver microsomes from untreated beagle dogs (female); type: in vitro ADME; details: female dog liver microsomes; 50 μM parent PCB, 2 h, 37 °C
[2] = test system: liver microsomes from golden Syrian hamsters (male); type: in vitro ADME; details: male hamster liver microsomes; 50 μM parent PCB, 2 h, 37 °C
[3] = test system: liver microsomes prepared from male Sprague–Dawley rats; type: in vitro ADME, rat; details: for relative level of dihydroxylated metabolite: all rat liver microsomal preparations except PB-pretreated rats, GC-μECD; for metabolite detection by GC–MS: 50 μM parent PCB, 2 h, 37 °C
[4] = test system: liver microsomes from rats, dogs, guinea pigs, hamsters, monkeys and rabbits; type: in vitro ADME; details: for formation of monohydroxylated metabolite, GC–MS: all microsomal preparations investigated; for status of metabolite in incubations with liver microsomes of different species: dogs, guinea pigs, hamsters, monkeys, rabbits, all incubations
[5] = Racemization of OH-PCB metabolites; type: physicochemical; details: CD column, GC-μECD; 300 °C for 2 h; methylated derivatives
[6] = test system: liver microsomes from Cynomolgus monkeys (male); type: in vitro ADME; details: monkey liver microsomes, compared with other liver microsomes
[7] = microsomes from isoniazid (INH) pretreated rats
[8] = microsomes from phenobarbital (PB) pretreated rats

Structure (SMILES) | relative level of dihydroxylated metabolite [3] | metabolite detection by GC–MS [3, 7] | metabolite detection by GC–MS [3, 8] | formation of monohydroxylated metabolite, GC–MS [4] | status of metabolite in incubations with liver microsomes of different species [4] | EF after racemization [5] | also measured
Oc1cc(Cl)c(Cl)c(-c2c(Cl)ccc(Cl)c2Cl)c1Cl [5-OH-PCB 136, 2,2′,3,3′,6,6′-hexachlorobiphenyl-5-ol] |  |  |  |  |  |  | metabolite formed (dog CYP2B11): 4,5-dihydroxylated PCB 136 metabolite; metabolite formed (recombinant rat CYP2B1): 4,5-dihydroxylated PCB 136 metabolite
Oc1cc(Cl)c(-c2cc(Cl)c(Cl)cc2Cl)c(Cl)c1O [diOH-PCB 102, 3′,4′-dihydroxy-2,2′,4,5,6′-pentachlorobiphenyl] | minor metabolites | formed | formation |  |  |  | metabolite detection by GC–MS [1]: formed; metabolite detection by GC–MS [2]: formed; metabolite detection by GC–MS ([3]; microsomes from corn oil (CO) treated rats): formed
Oc1ccc(Cl)c(-c2ccc(Cl)cc2Cl)c1Cl [OH-PCB 51, 2,2′,4,6′-tetrachlorobiphenyl-3′-ol] |  |  | major metabolite | formed | major metabolite | 0.46 ± 0.01 | rank order of EF values across species ([4]; EF = area E1/(area E1 + area E2), Chirasil-Dex column): monkey > rabbit ∼ guinea pig > hamster > rat > dog; extent of enantiomeric enrichment (EF) [6]: near racemic; extent of enantiomeric enrichment, comparison of congeners ([3]; incubations with rat liver microsomes): more pronounced enantiomeric enrichment compared to OH-PCB 102
Oc1cc(Cl)c(-c2ccc(Cl)cc2Cl)c(Cl)c1O [diOH-PCB 51, 3′,4′-dihydroxy-2,2′,4,6′-tetrachlorobiphenyl] | minor metabolites | low levels | minor |  |  |  | 
Oc1ccc(Cl)c(-c2cc(Cl)c(Cl)cc2Cl)c1Cl [OH-PCB 102, 2,2′,4,5,6′-pentachlorobiphenyl-3′-ol] |  |  | major metabolite | detected | major metabolite | 0.49 ± 0.01 | 
